Converted amounts (≈) assume the structure as drawn. Read-outs that look alike come from different tables or passages of the source.
Legend:
acute toxicity, mouse = conditions: in vivo; for LD50 at 168 h: 7 day
Procedure: (§1) In a toxicology study, monkeys were medicated orally with 5 mg./kg. and 25 mg./kg. of the product of Example 1A each day for 5 days. […] There was considerable variability among the monkeys in the magnitude of the response. Symptoms lasted 2 to 5 hours. […] Blood SGO-T, alkaline phosphatase, and BUN were all normal.

mice [1] = assay: inclined screen test in mice (skeletal muscle relaxation); type: in vivo; conditions: Mus musculus
mice [2] = assay: psychomotor activity studies in mice; type: in vivo
[3] = precipitation on diluting ethyl alcohol solution with four volumes of water; type: physicochemical; conditions: 5 percent (w/v) solution in 95 percent ethyl alcohol
mice [4] = assay: diuresis in mice; type: in vivo; conditions: 12.5 mg./kg. and 25 mg./kg. i.p.
[5] = test system: maximal electroshock seizures; assay: anti-maximal electroshock seizure test in mice; type: in vivo; conditions: for ED50: Mus musculus
Procedure: The preferred species of this invention, i.e. the compounds having in free base form Formula II, are useful as analgesic agents administered orally or parenterally to humans. […] In the anti-maximal electroshock seizure test, the compounds were administered intraperitoneally or perorally 30 or 90 minutes prior to the application of 50 milliamperes of alternating current through corneal electrodes. Shock duration was 0.3 second. The criterion for anticonvulsant activity was the absence of the tonic hind leg extensor component of the seizure. In the anti-maximal pentylenetetrazol seizure test, the compounds were given intraperitoneally 30 or 90 minutes prior to the rapid intravenous injection of 50 mg. per kg. of pentylenetetrazol. Failure to display tonic hind leg extensor seizures was again the criterion for drug action. Representative results, expressed as ED50 (mg./kg.), which were obtained with my new compounds in these two tests are as follows: […]

pH of solution = type: physicochemical; conditions: hydrochloride; 0.42 ml. of N/2 hydrochloric acid and 0.58 ml. of water
[6] = test system: minimal pentylenetetrazol seizures; assay: anticonvulsant test against minimal pentylenetetrazol seizures; type: in vivo, mice; conditions: Mus musculus, oral, pentylenetetrazol 32.5 mg./kg. intravenously
Procedure: In anticonvulsant studies, against minimal pentylenetetrazol seizures, wherein the dose of pentylenetetrazol was only 32.5 mg./kg. (intravenously) and the ensuing convulsions were clonic, without a tonic hind leg extensor component, the oral ED50 values were: 30 minutes post-medication, 15 ± 4 mg./kg.; 90 minutes post-medication, 37 ± 6 mg./kg.

[7] = solubility in water or aqueous acid; conditions: dilute hydrochloric acid
humans = assay: analgesic use in humans; type: in vivo
Procedure: For example, administered orally, the effective dosage of the racemic cis form of this compound in humans has been determined to be about 0.1 to 0.5 mg. of drug per kg. of body weight per day, at 5-25 mg. per dose; preferably about 0.2 to 0.4 mg./kg./day, for instance a total of […] at 20 mg./dose.

[8] = test system: maximal pentylenetetrazol seizures; assay: anti-maximal pentylenetetrazol seizure test in mice; type: in vivo; conditions: Mus musculus
monkeys = assay: toxicology study in monkeys (oral, daily for 5 days); type: in vivo
Procedure: as §1

acute toxicity, rat = conditions: in vivo; for LD50 at 168 h: 7 day
Procedure: as §1

[9] = precipitation on gradual pH adjustment of the aqueous solution; type: physicochemical; conditions: 1 percent solution, N/10 sodium hydroxide solution, pH 7.0
[10] = 5 mg./kg. orally each day for 5 days
[11] = iv, I.V., read-out: LD50 ± s.e.

C[C@H]1[C@H]2Cc3ccccc3[C@]1(C)CCN2CC1CC1 (relative stereo) [Example 1A, racemic 1,2,3,4,5,6-hexahydro-3-cyclopropylmethyl-cis-6,11-dimethyl-2,6-methano-3-benzazocine]
LD50 at 24 h (acute toxicity, mouse; ip, I.P.): 65 ± 7 mg/kg | LD50 at 168 h (acute toxicity, mouse; ip, I.P.): 65 ± 7 mg/kg | LD50 at 24 h (acute toxicity, mouse; iv, I.V.): 20 ± 1 mg/kg | LD50 at 168 h (acute toxicity, mouse; iv, I.V.): 20 ± 1 mg/kg | LD50 at 24 h (acute toxicity, mouse; po, P.O.): 155 ± 17 mg/kg | LD50 at 168 h (acute toxicity, mouse; po, P.O.): 155 ± 17 mg/kg | ED50 (mice [1]; 1 h, oral, sixty minutes after medication, read-out: dose at which 50 percent of the mice had fallen from a 60° inclined screen): 38.2 ± 11 mg/kg | ED50 (mice [1]; ip, intraperitoneal, read-out: ED50, 60° inclined screen): 17.2 mg/kg | toxic signs at high dose (mice [2]; 128 mg./kg. p.o.): Ataxia, loss of righting reflex, and death occurred | psychomotor activity pattern (mice [2]; 8-128 mg./kg. p.o.): stimulation at lower doses and depression at high doses | precipitation on dilution with four volumes of water [3]: a precipitate formed | diuresis (mice [4]): significant diuresis | urine produced (mice [4]): dilute urine without electrolyte concentration | Anti-Maximal Electroshock ED50 ([5]; IP, 90'): INACT. | ED50 ([5]; 0.5 h, IP, 30'): 11.2 ± 2 mg/kg | ED50 ([5]; 0.5 h, PO, 30'): 26.2 ± 7 mg/kg | ED50 ([5]; 1.5 h, PO, 90'): 35.5 ± 3 mg/kg | pH of 1 percent solution in dilute hydrochloric acid (pH of solution): 1.5 | ED50 ([6]; 0.5 h, 30 minutes post-medication): 15 ± 4 mg/kg | ED50 ([6]; 1.5 h, 90 minutes post-medication): 37 ± 6 mg/kg | solubility [7]: 10000 µg/mL (≈ 39.2 mM) | psychotomimetic effects in humans (humans; analgesically effective doses): very few, if any, psychotomimetic effects | central nervous system effects in humans (humans; effective therapeutic analgesic doses): only minimal central nervous system effects | analgesic activity in humans (humans; humans): strong analgesic | ED50 ([8]; 0.5 h, IP, 30'): 2.3 ± 7 mg/kg | ED50 ([8]; 0.5 h, PO, 30'): 3.3 ± 0.8 mg/kg | ED50 ([8]; 1.5 h, IP, 90'): 5.3 ± 10 mg/kg | ED50 ([8]; 1.5 h, PO, 90'): 6.2 ± 1 mg/kg | symptoms (monkeys; [10]): Some ataxia with a decrease in activity | tolerability (monkeys; [10]): well tolerated | symptoms (monkeys; 25 mg./kg. orally each day for 5 days): more marked decrease in spontaneous activity along with ataxia and salivation | BUN (monkeys; oral): normal | Blood SGO-T (monkeys; oral): normal | alkaline phosphatase (monkeys; oral): normal | body weight (monkeys; oral): Some weight loss occurred | LD50 at 24 h (acute toxicity, rat; [11]): 17 ± 1 mg/kg | LD50 at 168 h (acute toxicity, rat; [11]): 17 ± 1 mg/kg | LD50 at 24 h (acute toxicity, rat; po, P.O., read-out: ALD50): 200 mg/kg | LD50 at 168 h (acute toxicity, rat; po, P.O., read-out: ALD50): 200 mg/kg | precipitation on adjusting to pH 7.0 [9]: no precipitate formed

From patent US4108857A, “Imidazolylmethyl methanobenzazocines” (Sterling Drug Inc., priority 1977, dated 1978)
